The values that follow come from patent US9187472B2 (AbbVie Inc., priority 2012, dated 2015).

For test [1], the target named is NAMPT (human, recombinant, C-terminally His-tagged) (Homo sapiens, UniProt P43490). Briefly: Time-Resolved Fluorescence Resonance Energy Transfer (TR-FRET) Binding Assay of NAMPT. The following applies: without substrates; 6.8 nM NAMPT, 200 nM probe, 3 hours equilibration. The procedure:
Determination of the utility of compounds having Formula (I) as binders to and inhibitors of NAMPT was performed using Time-Resolved Fluorescence Resonance Energy Transfer (TR-FRET) binding assays.
Time-Resolved Fluorescence Resonance Energy Transfer (TR-FRET) Binding Assay of NAMPT
Test compounds were serially diluted (typically 11 half log dilutions) in neat DMSO to 50× final concentrations prior to dilution with assay buffer (50 mM HEPES (NaOH), pH 7.5, 100 mM NaCl, 10 mM MgCl2, 1 mM DTT, 1% Glycerol) to 3× and 6% DMSO. Six μL were transferred to 384-well low-volume plates (Owens Corning #3673). To this, […] of a 1.5× solution containing enzyme, probe and antibody were added. Final concentrations in the 18 μL, reactions were 1× assay buffer, 2% DMSO, 6.8 nM NAMPT (human, recombinant, C-terminally His-tagged), 200 nM probe (a potent nicotinamide-competitive inhibitor conjugated to Oregon Green 488) and 1 nM Tb-anti-His antibody (Invitrogen # PV5895). Reactions were equilibrated at room temperature for 3 hours prior to reading on an Envision multi-label plate reader (Perkin Elmer; Ex=337 nm, Em=520 and 495 nm). Time-resolved FRET ratios (Em520/Em495) were normalized to controls, plotted as a function of compound concentration and fit with the four-parameter logistic equation to determine IC50s.

The next test has as its system PC3 cells. Briefly: NAMPT Cell Proliferation Assay. The following applies: Homo sapiens, PC-3, 120 h, 5 days incubation, cell viability by Cell Titer Glo. It counts as cell-based. The procedure, abridged: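 IC50 values derive from sigmoidal dose-response fits of percent inhibition of PC3 viability, measured by luminescence after 5 days of compound treatment. Cells (500/well, RPMI containing 10% heat-inactivated FBS) are allowed to attach overnight, and compounds are tested at 10-fold dilutions between 10 μM and 1×10^−5 μM.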

The target in the next test is NAMPT (Homo sapiens, UniProt P43490). Briefly: TR-FRET Binding Assay of NAMPT with PRPP. The following applies: with 200 μM PRPP and 2.5 mM ATP; 2 nM NAMPT, 2 nM probe, 16 hours equilibration. The procedure:
Time-Resolved Fluorescence Resonance Energy Transfer (TR-FRET) Binding Assay of NAMPT with PRPP
Compound handling and data processing were identical to the assay in the absence of substrates (above). Final concentrations were 1× assay buffer, 2% DMSO, 2 nM NAMPT, 2 nM probe, 1 nM Tb-anti-His antibody (Invitrogen # PV5895), 200 μM PRPP and 2.5 mM ATP. Reactions were equilibrated for 16 hours prior to measurement to allow for potential enzymatic modification of test compounds.

Chain of NAMPT (P43490 whole entry): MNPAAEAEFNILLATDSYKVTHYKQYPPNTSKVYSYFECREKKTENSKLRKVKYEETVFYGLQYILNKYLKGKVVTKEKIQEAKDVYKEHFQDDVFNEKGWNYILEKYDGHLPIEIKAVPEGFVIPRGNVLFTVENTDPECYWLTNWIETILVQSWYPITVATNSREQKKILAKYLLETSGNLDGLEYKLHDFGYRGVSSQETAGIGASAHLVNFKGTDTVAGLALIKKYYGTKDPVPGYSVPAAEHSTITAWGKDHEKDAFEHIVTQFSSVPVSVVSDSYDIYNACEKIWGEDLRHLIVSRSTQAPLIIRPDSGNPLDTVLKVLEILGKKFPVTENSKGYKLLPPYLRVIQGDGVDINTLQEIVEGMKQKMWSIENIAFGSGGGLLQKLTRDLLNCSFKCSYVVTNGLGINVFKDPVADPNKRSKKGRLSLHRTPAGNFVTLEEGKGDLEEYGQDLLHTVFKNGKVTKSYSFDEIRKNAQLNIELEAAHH
Chain of NAMPT (human, recombinant, C-terminally His-tagged) (P43490 whole entry): as above

On to `O=C(NCc1ccn2ccnc2c1)Nc1ccc(C2=CCN(C(=O)CC3CCOCC3)CC2)cc1F` [Example 439, 1-{2-fluoro-4-[1-(tetrahydro-2H-pyran-4-ylacetyl)-1,2,3,6-tetrahydropyridin-4-yl]phenyl}-3-(imidazo[1,2-a]pyridin-7-ylmethyl)urea], for which the IC50 was 0.453 µM in test [1], 0.0375 µM with PC3 cells and 0.000641 µM at NAMPT.

With `CC[C@H](C)C(=O)N1CCC(c2ccc(C(=O)NCc3ccn4ccnc4c3)cc2)CC1` [Example 238, N-(imidazo[1,2-a]pyridin-7-ylmethyl)-4-{1-[(2S)-2-methylbutanoyl]piperidin-4-yl}benzamide], the IC50 was 0.123 µM in test [1], 0.00257 µM with PC3 cells and 0.000187 µM on NAMPT.

As for `O=C(NCc1ccn2ccnc2c1)Nc1ccc(C2CN(C(=O)c3ccccc3)C2)cc1` [Example 455, 1-[4-(1-benzoylazetidin-3-yl)phenyl]-3-(imidazo[1,2-a]pyridin-7-ylmethyl)urea], the IC50 in test [1] stood at 0.0167 µM; in the test with PC3 cells it was 0.0035 µM; at NAMPT, 0.000194 µM.

For `O=C(NCc1ccn2ccnc2c1)c1ccc(C2CCN(C(=O)c3ccco3)C2)s1` (stereo not drawn) [Example 783, 5-[1-(furan-2-ylcarbonyl)pyrrolidin-3-yl]-N-(imidazo[1,2-a]pyridin-7-ylmethyl)thiophene-2-carboxamide], the IC50 in test [1] worked out at 0.0644 µM; in the test on PC3 cells it was 0.0098 µM; on NAMPT, 0.000907 µM.

Consider `O=C(NCc1ccc2nccn2c1)c1cnc(N2C(=O)OCC2C2CCOC2)s1` (stereo not drawn) [Example 116, N-(imidazo[1,2-a]pyridin-6-ylmethyl)-2-[2-oxo-4-(tetrahydrofuran-3-yl)-1,3-oxazolidin-3-yl]-1,3-thiazole-5-carboxamide], for which the IC50 is 0.863 µM in test [1], 0.0613 µM with PC3 cells and 0.00069 µM on NAMPT.

Turning to `O=C(NCc1ccn2ccnc2c1)Nc1ccc(OC2CCN(C(=O)c3cccc(F)c3)CC2)cc1` [Example 726, 1-(4-{[1-(3-fluorobenzoyl)piperidin-4-yl]oxy}phenyl)-3-(imidazo[1,2-a]pyridin-7-ylmethyl)urea], the IC50 in test [1] is 0.251 µM; with PC3 cells, 0.0719 µM; at NAMPT, 0.000534 µM.

On to `O=C(NCc1ccc2nccn2c1)c1ccc(C2=CCN(C(=O)C3COCCO3)CC2)cc1` (stereo not drawn) [Example 102, 4-[1-(1,4-dioxan-2-ylcarbonyl)-1,2,3,6-tetrahydropyridin-4-yl]-N-(imidazo[1,2-a]pyridin-6-ylmethyl)benzamide], for which the IC50 was 0.385 µM in test [1], 0.013 µM in the test with PC3 cells and 0.00121 µM at NAMPT.

Take `CC(C)CCC(=O)Nc1ccc(NC(=O)NCc2ccc3nccn3c2)cc1` [Example 274, N-(4-{[(imidazo[1,2-a]pyridin-6-ylmethyl)carbamoyl]amino}phenyl)-4-methylpentanamide]: the IC50 in test [1] is 0.0178 µM; in the test with PC3 cells, 0.0104 µM; on NAMPT, 0.000196 µM.

Turning to `CC(C)C(=O)N1CC=C(c2ccc(NC(=O)NCc3ccn4ccnc4c3)c(F)c2)CC1` [Example 306, 1-{2-fluoro-4-[1-(2-methylpropanoyl)-1,2,3,6-tetrahydropyridin-4-yl]phenyl}-3-(imidazo[1,2-a]pyridin-7-ylmethyl)urea], the figures for the half-inhibitory concentration (IC50) (in test [1]; in the test with PC3 cells; on NAMPT) were 0.144 µM, 0.0219 µM and 0.000169 µM, respectively.

`O=C(NCc1ccn2ccnc2c1)c1ccc(C2CCN(C(=O)CC3CCCC3)C2)cc1` (stereo not drawn) [Example 581, 4-[1-(cyclopentylacetyl)pyrrolidin-3-yl]-N-(imidazo[1,2-a]pyridin-7-ylmethyl)benzamide]: the values for the IC50 (in test [1]; in the test with PC3 cells; at NAMPT) were 0.945 µM, 0.0812 µM and 0.00109 µM, respectively.

With `CC1(Cn2cc(-c3ccc(C(=O)NCc4ccn5ccnc5c4)s3)cn2)CCOCC1` [Example 576, N-(imidazo[1,2-a]pyridin-7-ylmethyl)-5-{1-[(4-methyltetrahydro-2H-pyran-4-yl)methyl]-1H-pyrazol-4-yl}thiophene-2-carboxamide], the concentration for half-maximal inhibition (IC50) was found to be 0.016 µM in test [1], 0.000569 µM in the test with PC3 cells and 0.000783 µM on NAMPT.

Regarding `O=C(NCc1ccn2ccnc2c1)Nc1ccc(OC2CCN(C(=O)[C@@H]3CCCO3)CC2)cc1` [Example 449, 1-(imidazo[1,2-a]pyridin-7-ylmethyl)-3-[4-({1-[(2S)-tetrahydrofuran-2-ylcarbonyl]piperidin-4-yl}oxy)phenyl]urea], the figures for the IC50 (in test [1]; with PC3 cells; at NAMPT) were 0.256 µM, 0.0236 µM and 0.000169 µM, respectively.

In the case of `Cn1cccc1C(=O)N1CCC(c2ccc(C(=O)NCc3ccn4ccnc4c3)cc2)C1` (stereo not drawn) [Example 606, N-(imidazo[1,2-a]pyridin-7-ylmethyl)-4-{1-[(1-methyl-1H-pyrrol-2-yl)carbonyl]pyrrolidin-3-yl}benzamide], the figures for the 50% inhibitory concentration (IC50) (in test [1]; with PC3 cells; on NAMPT) were 0.281 µM, 0.0348 µM and 0.000169 µM, respectively.

With `Cn1ccc(C(=O)N2CC(c3ccc(C(=O)NCc4ccn5ccnc5c4)cc3)C2)n1` [Example 642, N-(imidazo[1,2-a]pyridin-7-ylmethyl)-4-{1-[(1-methyl-1H-pyrazol-3-yl)carbonyl]azetidin-3-yl}benzamide], the results for the IC50 (in test [1]; in the test with PC3 cells; on NAMPT) were 0.454 µM, 0.0949 µM and 0.000532 µM, respectively.

On to `O=C(NCc1ccn2ccnc2c1)c1ccc(C2CN(C(=O)c3cccc(C(F)(F)F)c3)C2)cc1` [Example 671, N-(imidazo[1,2-a]pyridin-7-ylmethyl)-4-{1-[3-(trifluoromethyl)benzoyl]azetidin-3-yl}benzamide], for which the figures for the IC50 (in test [1]; in the test on PC3 cells; at NAMPT) were 0.611 µM, 0.684 µM and 0.00106 µM, respectively.

On to `O=C(Nc1ccc(C(=O)NCC2CCCC2)cc1)Nc1ccc2nccn2c1` [Example 8, N-(cyclopentylmethyl)-4-[(imidazo[1,2-a]pyridin-6-ylcarbamoyl)amino]benzamide], for which the IC50 is 0.114 µM in test [1], 0.0702 µM in the test with PC3 cells and 0.000702 µM at NAMPT.

`CC(C)(C(=O)N1CCC(c2ccc(C(=O)NCc3ccn4ccnc4c3)cc2)C1)c1ccccc1` (stereo not drawn) [Example 732, N-(imidazo[1,2-a]pyridin-7-ylmethyl)-4-[1-(2-methyl-2-phenylpropanoyl)pyrrolidin-3-yl]benzamide]: the IC50 worked out at 0.0213 µM in test [1], 0.0059 µM with PC3 cells and 0.000471 µM on NAMPT.

With `O=C(NCc1ccn2ccnc2c1)c1ccc(C2CCN(C(=O)c3cccc(OC(F)(F)F)c3)C2)cc1` (stereo not drawn) [Example 618, N-(imidazo[1,2-a]pyridin-7-ylmethyl)-4-{1-[3-(trifluoromethoxy)benzoyl]pyrrolidin-3-yl}benzamide], the IC50 in test [1] was found to be 0.5 µM; in the test on PC3 cells, 0.125 µM; on NAMPT it was 0.000751 µM.

Regarding `O=C(CC1CCOCC1)Nc1ccc(C(=O)NCc2ccc3nccn3c2)cc1` [Example 79, N-(imidazo[1,2-a]pyridin-6-ylmethyl)-4-[(tetrahydro-2H-pyran-4-ylacetyl)amino]benzamide], the IC50 worked out at 0.121 µM in test [1], 0.00745 µM in the test with PC3 cells and 0.00697 µM at NAMPT.

In the case of `COCCNC(=O)N(C[C@@H]1CCCO1)c1ncc(C(=O)NCc2ccc3nccn3c2)s1` [Example 155, N-(imidazo[1,2-a]pyridin-6-ylmethyl)-2-{[(2-methoxyethyl)carbamoyl][(2S)-tetrahydrofuran-2-ylmethyl]amino}-1,3-thiazole-5-carboxamide], the values for the IC50 (in test [1]; with PC3 cells; on NAMPT) were 3.37 µM, 0.0176 µM and 0.0023 µM, respectively.

As for `O=C(NCc1ccn2ccnc2c1)c1ccc(C2CCN(C(=O)c3ccno3)CC2)s1` [Example 264, N-(imidazo[1,2-a]pyridin-7-ylmethyl)-5-[1-(1,2-oxazol-5-ylcarbonyl)piperidin-4-yl]thiophene-2-carboxamide], the IC50 in test [1] turned out to be 0.0404 µM; in the test on PC3 cells, 0.00669 µM; at NAMPT it was 0.000412 µM.

As to `O=C(NCc1ccn2ccnc2c1)c1ccc(C2CCN(C(=O)c3cccc(Cl)c3)C2)cc1` (stereo not drawn) [Example 597, 4-[1-(3-chlorobenzoyl)pyrrolidin-3-yl]-N-(imidazo[1,2-a]pyridin-7-ylmethyl)benzamide], the results for the IC50 (in test [1]; in the test with PC3 cells; at NAMPT) were 0.232 µM, 0.0335 µM and 0.000862 µM, respectively.
